According to patent US20260091068A1, “METHODS FOR TREATING AND PREVENTING DISEASES” (priority 2017, published 2026):

Legend:
[1] = test system: bacteriophages from swabs of hands, masks and work surfaces; assay: Bacterial DNA in blood (16S RT-PCR) after water with phages from treated objects and surfaces (Example 5); type: in vivo; conditions: average of 3 experiments
Description: Fourteen days after including any product enriched with bacteriophage mixture into the mice diet, the mice blood was aseptically taken and bacterial DNA content in the bloodstream was evaluated. Increased DNA content in blood indicates an increase of intestinal permeability reflecting increased translocation of microorganisms from the gastro-intestinal tract into the systemic circulation. (See Deitch E. A., et al. Effect of hemorrhagic shock on bacterial translocation, intestinal morphology, and intestinal permeability in conventional and antibiotic-decontaminated rats. Critical care medicine 18.5 (1990), 529-536). DNA was isolated with a kit for the isolation of nucleic acids DNAQamp Qiagen. Quantitative determination of DNA was carried out by RT-PCR using universal bacterial primers for 16S rRNA (upb2 with a universal FAM-probe for bacteria: (5FAM) aat acg ttc ccg ggt ctt gta cac acc gcc cgt cac act att (3′RTQ1) (SEQ ID NO: 6) and DG74 5′aac tgg agg aag gtg ggg at 3′ (SEQ ID NO: 7)) on Bio-Rad CFX96 amplifier. Reaction conditions: 95° C.—5 min. 45 cycles 95° C.—15 sec, 60° C.—30 sec, fluorescence reading.
Bacteriophages were obtained from the swabs from hands and masks of medical staff and work surfaces in surgical clinics. The hands, masks and surfaces were subjected to various kinds of treatments in order to reduce the amount of phages on them. After the treatment, phages were isolated by the Gratia's method (Kropinski et al. “Enumeration of bacteriophages by double agar overlay plaque assay.” Bacteriophages: Methods and Protocols, Volume 1: Isolation, Characterization, and Interactions, Humana Press, 2009, vol. 501, 69-76). Test material (swabs) was filtered through 0.45 μm Millipore membrane filters. The resulting filtrate was incubated at 60° C. for 60 minutes to inactivate bacteria and was added to 100 μL of water. The resulting solutions were given to animals with water, and the development of an increased intestinal permeability was evaluated as described in Example 4, above. The animals were divided into the following treatment groups:
Group “PHG”: water with the addition of bacteriophages obtained from objects and surfaces treated with a 0.1% (1000 mg/L) polyhexamethylene guanidine derivative preparation. The polyhexamethylene guanidine preparation used in this treatment was prepared by condensation polymerization of hexamethylenediamine with guanidine salt and hydrazine hydrate, as described in U.S. Provisional Pat. Appl. No. 62/510,446, U.S. Pat. No. 8,993,712, U.S. Pat. Appl. Pub. No. 2017/0013838 and Int. Pat. Appl. Pub. No. WO2016/118043.
Group “Photocatalyst”: water with the addition of bacteriophages obtained from objects and surfaces treated with TiO2 and activated by ultraviolet radiation. […]

[2] = test system: bacteriophages isolated from waste water; assay: Bacterial DNA in blood (16S RT-PCR) after diet with phage-enriched, treated products (Example 4); type: in vivo, Wistar rats; conditions: blood after 14 days, average of 3 experiments
Description: As a source for the isolation of bacteriophages, waste water from canalization was used. The phages were isolated by Gratia's method (Kropinski et al. “Enumeration of bacteriophages by double agar overlay plaque assay.” Bacteriophages: Methods and Protocols, Volume 1: Isolation, Characterization, and Interactions, Humana Press, 2009, vol. 501, 69-76). Test material (waste water) was filtered through 0.45 μm Millipore membrane filters. The resulting filtrate was incubated at 60° C. for 60 minutes to inactivate bacteria and was added to water or products (e.g., milk, yogurt, curd, cheese, minced meat, minced chicken, fish, fruit mix, vegetable mixture) in 100 μL volume. The resulting food products enriched with phages were included in the mice diet. […]
Fourteen days after including any product enriched with bacteriophage mixture into the mice diet, the mice blood was aseptically taken and bacterial DNA content in the bloodstream was evaluated. […] Quantitative determination of DNA was carried out by RT-PCR using universal bacterial primers for 16S rRNA (upb2 with a universal FAM-probe for bacteria: (5FAM) aat acg ttc ccg ggt ctt gta cac acc gcc cgt cac act att (3′RTQ1) (SEQ ID NO: 6) and DG74 5′aac tgg agg aag gtg ggg at 3′ (SEQ ID NO: 7)) on Bio-Rad CFX96 amplifier. […] 45 cycles 95° C.—15 sec, 60° C.—30 sec, fluorescence reading.

[3] = test system: bacteriophages isolated from the feces of obese mice; assay: Body weight after 21 weeks of drinking water with phages from obese mice (Example 6); type: in vivo; conditions: treated drinking water with phages from obese mice; standard diet
Description: To assess a possibility of preventing changes in the GI microbiota leading to obesity by limiting bacteriophage entry from the environment, bacteriophages were isolated from the feces of Group #1 mice in which obesity was modeled. The obtained phages were added to drinking water of mice (age 12 weeks) from Group #2 for 21 weeks. The diet of the animals remained standard, i.e., not a high fat diet. The mice in Group #2 were divided into the following treatment groups:
Group “Filtration”: water with the addition of bacteriophages, filtered through 0.45 μm Millipore membrane filters.
Group “Pascalization”: water with the addition of bacteriophages, treated with high pressure (340 MPa).
Group “Prototype”: water with the addition of bacteriophages, treated with potassium nitrate.

hairless mice = assay: General skin elasticity after 36 weeks of water application (Example 7); type: in vivo; conditions: vs untreated left part of the back
Description: In the experiment, hairless mice, 5 males and 5 females, (C57BL/6 albino/hairless, The Jackson Laboratories) of both sexes were used. Starting from 4 weeks of age, animals were daily treated with tap water or mineral water from artesian source, the water applied on the right half of the back. After 36 weeks, skin condition parameters were evaluated (SoftPlusCPU (Callegaris.p.a.)) in the application area, compared with the untreated left part of the back. Animals were divided into the following treatment groups:
Group “Filtration”: water filtered through 0.22 μm Millipore membrane filters.
Group “Electron”: water treated with an electron flow.
Group “Prototype”: water treated with potassium nitrate.

Row | Structure (SMILES) | Number of cycles during which bacterial DNA appears (Cq) [1] [cycles] | Number of cycles during which bacterial DNA appears (Cq) ([2]; phages added to cheese) [cycles] | Number of cycles during which bacterial DNA appears (Cq) ([2]; phages added to water) [cycles] | Animal body weight after 21 weeks [3] [g] | Change in parameter of general skin elasticity (hairless mice; Tap water) [%] | Change in parameter of general skin elasticity (hairless mice; Well water) [%]
1 | [Cu+2] [Metals, Cu^2+] | 29.51 |  |  |  |  | 
2 | O=[O+][O-] [Ozone, ozone] | 27.74 |  |  |  |  | 
3 | OO [Peroxide, H2O2] | 31.65 |  |  |  |  | 
4 | O=[N+]([O-])[O-].[K+] [Prototype, potassium nitrate] | 17.92 | 19.79 | 17.28 | 46 | −42.9 | −41.4
